From ChEMBL document CHEMBL5055644, “Cysteine derivatives as acetyl lysine mimics to inhibit zinc-dependent histone deacetylases for treating cancer” (Eur J Med Chem, 2021)
Activity calls are given as the source filed them. No cut-off for these calls is given here.

Assays:
K562 [1] = assay: Induction of apoptosis in human K562 cells assessed as upregulation of BaX protein expression at 10 uM measured after 8 hrs by Western blot analysis; format: functional, cell-based
[2] = target: T1, Protein deacetylase HDAC6 (Homo sapiens) (UniProt Q9UBN7); assay: Inhibition of HDAC6 in human A549 cells assessed as increase in alpha tubulin acetylation at 10 uM measured after 8 hrs by Western blot analysis; format: cell-based
T1 sequence (whole entry): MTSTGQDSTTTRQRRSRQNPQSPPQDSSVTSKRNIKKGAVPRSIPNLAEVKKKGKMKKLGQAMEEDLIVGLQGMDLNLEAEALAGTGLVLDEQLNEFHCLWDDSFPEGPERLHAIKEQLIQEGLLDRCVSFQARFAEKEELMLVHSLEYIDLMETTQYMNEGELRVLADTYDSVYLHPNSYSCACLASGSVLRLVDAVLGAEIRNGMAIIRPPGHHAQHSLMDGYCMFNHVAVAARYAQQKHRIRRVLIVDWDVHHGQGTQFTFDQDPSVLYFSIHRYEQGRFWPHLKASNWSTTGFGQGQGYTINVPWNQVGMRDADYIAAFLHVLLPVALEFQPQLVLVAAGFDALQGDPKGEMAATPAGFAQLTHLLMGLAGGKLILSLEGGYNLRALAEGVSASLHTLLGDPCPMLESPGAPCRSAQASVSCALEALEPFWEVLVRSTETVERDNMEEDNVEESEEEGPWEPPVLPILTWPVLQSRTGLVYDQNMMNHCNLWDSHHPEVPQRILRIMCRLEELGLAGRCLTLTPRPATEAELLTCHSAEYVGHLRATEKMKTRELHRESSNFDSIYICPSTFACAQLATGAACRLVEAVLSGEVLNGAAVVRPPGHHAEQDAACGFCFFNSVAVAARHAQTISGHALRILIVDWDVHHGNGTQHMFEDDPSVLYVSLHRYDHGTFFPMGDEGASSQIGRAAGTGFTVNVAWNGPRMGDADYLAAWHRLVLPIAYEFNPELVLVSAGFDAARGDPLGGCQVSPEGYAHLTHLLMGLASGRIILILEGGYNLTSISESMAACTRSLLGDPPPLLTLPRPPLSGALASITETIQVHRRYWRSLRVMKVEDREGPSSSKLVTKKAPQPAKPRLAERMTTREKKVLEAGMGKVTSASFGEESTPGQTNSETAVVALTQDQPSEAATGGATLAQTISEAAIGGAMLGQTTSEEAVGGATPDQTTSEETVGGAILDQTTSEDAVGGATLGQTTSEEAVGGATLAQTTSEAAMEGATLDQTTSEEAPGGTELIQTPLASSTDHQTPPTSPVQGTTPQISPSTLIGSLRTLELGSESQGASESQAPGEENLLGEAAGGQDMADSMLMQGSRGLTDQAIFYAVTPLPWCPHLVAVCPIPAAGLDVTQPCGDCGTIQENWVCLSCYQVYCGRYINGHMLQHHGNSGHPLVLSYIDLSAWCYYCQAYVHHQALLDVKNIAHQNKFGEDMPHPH

A549 [3] = assay: Antitumor activity against human A549 cells xenografted in BALB/c mouse assessed as tumor growth inhibition at high dose when administered intratumorally for 21 days relative to control; format: functional; conditions: route it(Intratumoral); time 21 day
A549 [4] = assay: Antitumor activity against human A549 cells xenografted in BALB/c mouse assessed as tumor growth inhibition at low dose when administered intratumorally for 21 days relative to control; format: functional; conditions: route it(Intratumoral); time 21 day
[5] = target: T2, Class 1 histone deacetylase (Homo sapiens) (UniProt Q13547+O15379+Q92769+Q9BY41); assay: Inhibition of class 1 HDAC in human A549 cells assessed as increase in histone H3/H4 acetylation measured after 24 hrs by Immunofluorescent assay; format: cell-based
T2 sequence (O15379 whole entry, looked up): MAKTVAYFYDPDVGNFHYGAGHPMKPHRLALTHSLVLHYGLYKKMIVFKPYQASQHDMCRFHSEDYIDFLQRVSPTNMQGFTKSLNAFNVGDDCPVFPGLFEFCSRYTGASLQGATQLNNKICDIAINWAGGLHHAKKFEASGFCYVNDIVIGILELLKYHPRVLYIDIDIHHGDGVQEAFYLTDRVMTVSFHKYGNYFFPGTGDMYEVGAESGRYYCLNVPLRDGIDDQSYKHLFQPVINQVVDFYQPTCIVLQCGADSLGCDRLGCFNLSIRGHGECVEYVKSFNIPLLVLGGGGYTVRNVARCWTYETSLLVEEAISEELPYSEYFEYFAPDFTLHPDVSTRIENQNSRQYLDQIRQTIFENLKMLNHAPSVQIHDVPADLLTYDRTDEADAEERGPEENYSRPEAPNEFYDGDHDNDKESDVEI
T2 sequence (Q13547 whole entry, looked up): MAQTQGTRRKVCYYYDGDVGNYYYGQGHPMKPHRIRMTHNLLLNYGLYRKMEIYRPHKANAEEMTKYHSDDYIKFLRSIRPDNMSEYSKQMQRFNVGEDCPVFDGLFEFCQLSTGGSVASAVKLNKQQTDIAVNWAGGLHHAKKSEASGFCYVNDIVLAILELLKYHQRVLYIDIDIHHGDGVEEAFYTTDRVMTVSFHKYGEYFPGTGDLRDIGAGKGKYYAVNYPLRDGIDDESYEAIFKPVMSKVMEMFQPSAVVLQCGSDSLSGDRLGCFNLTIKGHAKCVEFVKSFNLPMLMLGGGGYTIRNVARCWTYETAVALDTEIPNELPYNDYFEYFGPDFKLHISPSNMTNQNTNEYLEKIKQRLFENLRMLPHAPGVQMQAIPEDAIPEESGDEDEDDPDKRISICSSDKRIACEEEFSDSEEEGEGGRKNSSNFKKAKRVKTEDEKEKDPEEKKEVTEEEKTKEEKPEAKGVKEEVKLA
T2 sequence (Q92769 whole entry, looked up): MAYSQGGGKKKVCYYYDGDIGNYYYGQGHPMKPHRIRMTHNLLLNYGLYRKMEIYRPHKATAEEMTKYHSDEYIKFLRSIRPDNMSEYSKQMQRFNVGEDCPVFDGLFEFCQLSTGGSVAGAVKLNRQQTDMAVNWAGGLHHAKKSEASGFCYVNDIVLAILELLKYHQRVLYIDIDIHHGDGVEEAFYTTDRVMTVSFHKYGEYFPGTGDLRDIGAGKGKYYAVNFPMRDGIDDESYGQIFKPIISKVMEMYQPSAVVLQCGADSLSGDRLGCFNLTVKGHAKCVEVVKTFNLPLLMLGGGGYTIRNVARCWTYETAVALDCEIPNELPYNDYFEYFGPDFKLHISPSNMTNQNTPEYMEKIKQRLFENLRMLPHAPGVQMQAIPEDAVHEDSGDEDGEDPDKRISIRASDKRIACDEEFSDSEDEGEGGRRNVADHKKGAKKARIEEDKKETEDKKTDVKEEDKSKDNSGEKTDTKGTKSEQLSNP
T2 sequence (Q9BY41 whole entry, looked up): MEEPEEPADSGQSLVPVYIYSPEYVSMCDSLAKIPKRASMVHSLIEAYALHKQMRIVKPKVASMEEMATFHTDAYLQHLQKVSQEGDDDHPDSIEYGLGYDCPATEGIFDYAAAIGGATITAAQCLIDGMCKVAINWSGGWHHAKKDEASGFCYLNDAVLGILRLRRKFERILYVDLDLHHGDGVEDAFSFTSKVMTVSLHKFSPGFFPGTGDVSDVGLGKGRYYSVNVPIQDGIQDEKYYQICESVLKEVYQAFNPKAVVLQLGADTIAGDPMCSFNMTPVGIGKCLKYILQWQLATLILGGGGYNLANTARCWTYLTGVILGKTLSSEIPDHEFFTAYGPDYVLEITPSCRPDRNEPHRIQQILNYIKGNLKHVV

[6] = Acute toxicity in BALB/c mouse assessed as maximum tolerated dose; conditions: in vivo
[7] = target: T2, Class 1 histone deacetylase (Homo sapiens); assay: Inhibition of class 1 HDAC in human A549 cells assessed as increase in histone H3/H4 acetylation at 10 uM measured after 8 hrs by Western blot analysis; format: cell-based
A549 [8] = assay: Antitumour activity against human A549 cells xenografted in BALB/c mouse assessed as tumor growth inhibition at 25 mg/kg,iv administered for 3 weeks relative to control; format: functional; conditions: A549, 504 h, read-out: TGI
Mus musculus [9] = assay: In vivo inhibition of HDAC in BALB/c mouse xenografted with human A549 cells assessed as increase in H3 histone at 25 to 50 mg/kg, iv administered for 3 weeks by immunohistochemical analysis; format: functional, organism-based; conditions: dose 25-50 mg/kg
A549 [10] = assay: Induction of cell cycle arrest in human A549 cells assessed as increase in accumulation at G1/G0 phase measured after 48 hrs by flow cytometry analysis; format: functional, cell-based; conditions: dose 1-10 µM
K562 [11] = assay: Induction of apoptosis in human K562 cells assessed as increased cleaved caspase 3 at 10 uM measured after 8 hrs by Western blot analysis; format: functional, cell-based
[12] = target: T1, Protein deacetylase HDAC6 (Homo sapiens); assay: Inhibition of HDAC6 in human A549 cells assessed as increase in alpha tubulin acetylation measured after 24 hrs by Immunofluorescent assay; format: cell-based
Mus musculus [13] = assay: Toxicity in BALB/c mouse xenografted with human A549 cells assessed as effect on body weight at 0.75 to 1.5 mg, IT(Intratumoral) measured after 21 days; format: organism-based; conditions: in vivo, other, 504 h, dose 0.75-1.5 mg, time 21 day
[14] = Acute toxicity in BALB/c mouse assessed as effect on body weight at up to 2000 mg/kg, po; format: organism-based; conditions: in vivo
A549 [15] = assay: Antitumor activity against human A549 cells xenografted in BALB/c mouse assessed as reduction in tumor volume when administered intratumorally for 21 days; format: functional; conditions: dose 0.75-1.5 mg, route it(Intratumoral), time 21.0 day
Mus musculus [16] = assay: Toxicity in BALB/c mouse xenografted with human A549 cells assessed as effect on body weight at 25 to 50 mg/kg, iv measured after 21 days; format: organism-based; conditions: in vivo, 504 h, dose 25-50 mg/kg, time 21 day
K562 [17] = assay: Induction of apoptosis in human K562 cells assessed as downregulation of Bcl-2 protein at 10 uM measured after 8 hrs by Western blot analysis; format: functional, cell-based

O=C(CCCSC[C@H](NC(=O)c1ccccc1)C(=O)Nc1ccccc1)NO
Activity (K562 [1]): Active | inhibition [2]: Active | TGI (A549 [3]): 72% | TGI (A549 [4]): 44% | inhibition [5]: Dose-dependent effect | MTD [6]: 100 mg/kg | inhibition [7]: Active | inhibition in vivo at 25 mg/kg (A549 [8]): 62% | inhibition (Mus musculus [9]): Active | Activity (A549 [10]): Dose-dependent effect | Activity (K562 [11]): Active | inhibition [12]: Dose-dependent effect | Activity (Mus musculus [13]): Non-Toxic | Activity [14]: Non-Toxic | Activity (A549 [15]): Dose-dependent effect | Activity (Mus musculus [16]): Non-Toxic | Activity (K562 [17]): Active
